Data on two compounds can be found in patent publication EP0168522A2, “Active agent-containing shaped article” (Akzo Patente GmbH, priority 1983, dated 1986).

≈ marks a conversion by molar mass, not a printed value.

This data set in a line: Water solubility of the active agent. The format is physicochemical. The settings on record: in water; read-out: Wasserlöslichkeit.

As to `CC(=O)Nc1ccc(O)cc1` [Acetaminophen], the solubility worked out at 14 mg/mL (≈ 92.6 mM).
Turning to `Oc1ccc(O)cc1` [Hydrochinon], the solubility was ~70 mg/mL (≈ 636 mM).
